Data set [1] is described as follows: Compound solubility in water.
Another data set has as its target T1, acid ceramidase (Homo sapiens, UniProt Q13510).
T1 construct: Cell lysates overexpressing acid ceramidase were used as the enzyme source; expressed in transfected cells
T1 sequence (Q13510 22-395): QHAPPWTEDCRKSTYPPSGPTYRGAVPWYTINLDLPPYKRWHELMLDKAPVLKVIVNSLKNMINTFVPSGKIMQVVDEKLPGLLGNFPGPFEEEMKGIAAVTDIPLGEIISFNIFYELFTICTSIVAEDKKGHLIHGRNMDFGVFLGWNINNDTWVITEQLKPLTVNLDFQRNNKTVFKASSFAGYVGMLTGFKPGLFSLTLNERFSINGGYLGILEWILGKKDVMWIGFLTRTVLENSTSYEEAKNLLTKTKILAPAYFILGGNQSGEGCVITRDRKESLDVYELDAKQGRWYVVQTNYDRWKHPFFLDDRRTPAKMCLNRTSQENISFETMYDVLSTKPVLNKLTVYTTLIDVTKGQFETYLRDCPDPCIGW
As to the kind of experiment: Acid ceramidase inhibition, biochemical fluorescent assay with cell lysates overexpressing acid ceramidase, substrate Rbm14-12. The note with it: substrate Rbm14-12 6.3 μM, pH 4.5. A digest of the protocol: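 Lysate of cells overexpressing acid ceramidase (10 μg protein) preincubated with compound dose series 1 hr at RT in 25 mM NaAC, 100 mM NaCl, pH 4.5, then reacted 1 hr with 6.3 μM Rbm14-12. Stopped with NaIO4/glycine buffer pH 10.6, fluorescence ex360/em446; IC50 by four-parameter fit.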

pIC50: −log10 of the molar value. Values after ≈ are worked out from the molar mass of the structure shown.

For orientation: solubility means how much of the substance goes into solution per volume. What is called pIC50 is −log10 of the IC50, conventionally taken in molar units. The low end stands for a high IC50, the high end for a low IC50. The molecule `CN(C)C1CCN(c2cccc3c2ncn3C(=O)NCCCc2ccccc2)C1` (stereo not drawn) [Example 264, 4-(3-(Dimethylamino)pyrrolidin-1-yl)-N-(3-phenylpropyl)-1H-benzo[d]imidazole-1-carboxamide] gave a solubility in data set [1] of 21 µg/mL (≈ 53.6 µM). The same molecule showed a pIC50 at acid ceramidase greater than 6.70.

The molecule `O=C(NCCCc1ccccc1)n1cnc2c(N3CC4CNCC4C3)cccc21` (stereo not drawn) [Example 265, 4-(Hexahydropyrrolo[3,4-c]pyrrole-2(1H)-yl)-N-(3-phenylpropyl)-1H-benzo[d]imidazole-1-carboxamide] had a solubility in data set [1] of 27 µg/mL (≈ 69.3 µM). This molecule also had a pIC50 against acid ceramidase greater than 6.70.

The molecule `CN1CC2CN(c3cccc4c3ncn4C(=O)NCCCc3ccccc3)CC2C1` (stereo not drawn) [Example 266, 4-(5-Methylhexahydropyrrolo[3,4-c]pyrrol-2(1H)-yl)-N-(3-phenylpropyl)-1H-benzo[d]imidazole-1-carboxamide] yielded a solubility in data set [1] of 34 µg/mL (≈ 84.3 µM). This molecule also showed a negative logarithm of the IC50 (pIC50) at acid ceramidase greater than 6.70.

In data set [1], `CN1CCC(c2cccc3c2ncn3C(=O)NCCCc2ccccc2)C1` (stereo not drawn) [Example 267, 4-(1-Methylpyrrolidin-3-yl)-N-(3-phenylpropyl)-1H-benzo[d]imidazole-1-carboxamide] displayed a solubility of 25 µg/mL (≈ 69 µM). At acid ceramidase, this molecule had a pIC50 greater than 6.70.

With `CNC1CCN(c2cccc3c2ncn3C(=O)NCCCc2ccccc2)C1` (stereo not drawn) [Example 268, 4-(3-(Methylamino)pyrrolidin-1-yl)-N-(3-phenylpropyl)-1H-benzo[d]imidazole-1-carboxamide], the solubility in data set [1] turned out to be 17 µg/mL (≈ 45 µM). Moreover, the pIC50 on acid ceramidase is greater than 6.70.

In data set [1], `CN1CCCN(c2cccc3c2ncn3C(=O)NCCCc2ccccc2)CC1` [Example 269, 4-(4-Methyl-1,4-diazepan-1-yl)-N-(3-phenylpropyl)-1H-benzo[a]imidazole-1-carboxamide] showed a solubility of 21 µg/mL (≈ 53.6 µM). The pIC50 against acid ceramidase was greater than 6.70.

The molecule `CN1CC(c2cccc3c2ncn3C(=O)NCCCc2ccccc2)C1` [Example 270, 4-(1-Methylazetidin-3-yl)-N-(3-phenylpropyl)-1H-benzo[d]imidazole-1-carboxamide] came in with a solubility in data set [1] of 32 µg/mL (≈ 91.8 µM). Moreover, the pIC50 against acid ceramidase was greater than 6.70.

In data set [1], `CN1CCC2CCN(c3cccc4c3ncn4C(=O)NCCCc3ccccc3)CC21` (stereo not drawn) [Example 271, 4-(1-Methyloctahydro-6H-pyrrolo[2,3-c]pyridin-6-yl)-N-(3-phenylpropyl)-1H-benzo[d]imidazole-1-carboxamide] yielded a solubility of 22 µg/mL (≈ 52.7 µM). On acid ceramidase, the pIC50 was greater than 6.70.

`CN(C)CC1CN(c2cccc3c2ncn3C(=O)NCCCc2ccccc2)C1` [Example 272, 4-(3-((Dimethylamino)methyl)azetidin-1-yl)-N-(3-phenylpropyl)-1H-benzo[d]imidazole-1-carboxamide] yielded a solubility in data set [1] of 21 µg/mL (≈ 53.6 µM). For the same molecule, the pIC50 against acid ceramidase is greater than 6.70.

`O=C(NCCCc1ccccc1)n1cnc2c(N3CC(C(F)(F)F)C3)cccc21` [Example 273, N-(3-Phenylpropyl)-4-(3-(trifluoromethyl)azetidin-1-yl)-1H-benzo[d]imidazole-1-carboxamide] returned a solubility in data set [1] of 0.2 µg/mL (≈ 0.497 µM). In addition, the pIC50 at acid ceramidase was greater than 6.70.

Regarding `O=C1CCC2CN(c3cccc4c3ncn4C(=O)NCCCc3ccccc3)CCN12` (stereo not drawn) [Example 275, 4-(6-Oxohexahydropyrrolo[1,2-a]pyrazin-2(1H)-yl)-N-(3-phenylpropyl)-1H-benzo[d]imidazole-1-carboxamide], the concentration in solution in data set [1] (solubility) was 15 µg/mL (≈ 35.9 µM). The molecule also had a pIC50 at acid ceramidase greater than 6.70.

In data set [1], `CN1CCN(C2CN(c3cccc4c3ncn4C(=O)NCCCc3ccccc3)C2)CC1` [Example 276, 4-(3-(4-Methylpiperazin-1-yl)azetidin-1-yl)-N-(3-phenylpropyl)-1H-benzo[d]imidazole-1-carboxamide] gave a solubility of 28 µg/mL (≈ 64.7 µM). Also, the pIC50 against acid ceramidase is greater than 6.70.

`CN1CCN(c2cccc3c2ncn3C(=O)NCCCc2ccccc2)CC1CF` (stereo not drawn) [Example 277, 4-(3-(Fluoromethyl)-4-methylpiperazin-1-yl)-N-(3-phenylpropyl)-1H-benzo[d]imidazole-1-carboxamide] gave a solubility in data set [1] of 18 µg/mL (≈ 44 µM). Also, the pIC50 against acid ceramidase is greater than 6.70.

The molecule `N#CCCN1CCN(c2cccc3c2ncn3C(=O)NCCCc2ccccc2)CC1` [Example 278, 4-(4-(2-Cyanoethyl)piperazin-1-yl)-N-(3-phenylpropyl)-1H-benzo[d]imidazole-1-carboxamide] came in with a solubility in data set [1] of 18 µg/mL (≈ 43.2 µM). This molecule also showed a pIC50 against acid ceramidase greater than 6.70.

`O=C(NCCCc1ccccc1)n1cnc2c(N3CCC3)cccc21` [Example 279, 4-(Azetidin-1-yl)-N-(3-phenylpropyl)-1H-benzo[d]-imidazole-1-carboxamide] returned a solubility in data set [1] of 1 µg/mL (≈ 2.99 µM). Besides, the pIC50 on acid ceramidase is greater than 6.70.

Take `CC(C)C#CCNC(=O)n1cnc2c(N3CCN(C)CC3)cccc21` [Example 280, N-(4-Methylpent-2-ynyl)-4-(4-methylpiperazin-1-yl)-1H-benzo[d]imidazole-1-carboxamide]: the concentration in solution in data set [1] (solubility) came to 16 µg/mL (≈ 47.1 µM). This molecule also had a pIC50 at acid ceramidase greater than 6.70.

The molecule `CC#CCNC(=O)n1cnc2c(N3CCN(C)CC3)cccc21` [Example 281, N-(But-2-yn-1-yl)-4-(4-methylpiperazin-1-yl)-1H-benzo[d]imidazole-1-carboxamide] came in with a solubility in data set [1] of 32 µg/mL (≈ 103 µM). The molecule also had a pIC50 against acid ceramidase of 6.00 to 6.70.

`CN1CCN(c2cccc3c2ncn3C(=O)NCC#Cc2ccccc2)CC1` [Example 282, 4(4-Methylpiperazin-1-yl)-N-(3-phenylprop-2-yn-1-yl)-1H-benzo[d]imidazole-1-carboxamide] had a solubility in data set [1] of 21 µg/mL (≈ 56.2 µM). For the same molecule, at acid ceramidase, the pIC50 was greater than 6.70.

Molecule `CN1CCN(c2cccc3c2ncn3C(=O)NCC#CC2CC2)CC1` [Example 283, N-(3-Cyclopropylprop-2-ynyl)-4-(4-methylpiperazin-1-yl)-1H-benzo[d]imidazole-1-carboxamide] gave a solubility in data set [1] of 28 µg/mL (≈ 83 µM). On acid ceramidase, the pIC50 was greater than 6.70.

Molecule `CN1CCN(c2cccc3c2ncn3C(=O)NCC#CCC2CC2)CC1` [Example 284] came in with a solubility in data set [1] of 30 µg/mL (≈ 85.4 µM). Besides, the pIC50 against acid ceramidase is greater than 6.70.

In data set [1], `CN1CCN(c2cccc3c2ncn3C(=O)NCC#CCC2(C(F)(F)F)CC2)CC1` [Example 285, 4-(4-Methylpiperazin-1-yl)-N-(4-(1-(trifluoromethyl)cyclopropyl)but-2-yn-1-yl)-1H-benzo[d]imidazole-1-carboxamide] came in with a solubility of 22 µg/mL (≈ 52.4 µM). Moreover, the pIC50 against acid ceramidase was greater than 6.70.

Regarding `O=C(NCCCc1ccccc1)n1cnc2c(N3CCN(C4COC4)CC3)cccc21` [Example 286, 4-(4-(Oxetan-3-yl)piperazin-1-yl)-N-(3-phenylpropyl)-1H-benzo[d]imidazole-1-carboxamide], the solubility in data set [1] came to 24 µg/mL (≈ 57.2 µM). At acid ceramidase, this molecule had a pIC50 greater than 6.70.

`CN1CC(N2CCN(c3cccc4c3ncn4C(=O)NCCC3CCC(F)(F)C3)CC2)C1` (stereo not drawn) [Example 287, N-(2-(3,3-Difluorocyclopentyl)ethyl)-4-(4-(1-methylazetidin-3-yl)piperazin-1-yl)-1H-benzo[d]imidazole-1-carboxamide] had a solubility in data set [1] of 36 µg/mL (≈ 80.6 µM). The pIC50 against acid ceramidase was 6.00 to 6.70.

`N#CCCN1CCN(c2cccc3c2ncn3C(=O)NCCC2CCC(F)(F)C2)CC1` (stereo not drawn) [Example 288, 4-(4-(2-Cyanoethyl)piperazin-1-yl)-N-(2-(3,3-difluorocyclopentyl)ethyl)-1H-benzo[d]imidazole-1-carboxamide] showed a solubility in data set [1] of 26 µg/mL (≈ 60.4 µM). On acid ceramidase, this molecule had a pIC50 of 6.00 to 6.70.

Values taken from patent US20220380319A1 (Bial - R&D Investments, S.A., priority 2019, published 2022).
